In patent US20210059246A1, “METHOD FOR EFFECTIVELY CONTROLLING COCCOID INSECT PESTS” (Ecología y Protección Agrícola, S.L., priority 2017, published 2021):
Where “and” joins values, the source holds several entries; their conditions need not be identical. Identical values can stand only once.

Experiments:
Aonidiella aurantii [1] = test: Field control of A. aurantii in citrus crops, percentage of damaged fruit; type: in vivo; settings: for EFFECTIVE CONTROL [% DAMAGE]: orange
[2] = tested on: Aonidiella aurantii males; settings: within natural semiochemical matrix; Vacas et al. 2017; cited from earlier work
[3] = tested on: Aonidiella aurantii males; test: Field trap test: effective flow attracting A. aurantii males within the interlinked semiochemical matrix; type: in vivo; settings: for EFFECTIVE FLOW: orange
Description: Experiments for obtaining an effective flow to combat the diaspidid Aonidiella aurantii were carried out on citrus crops located in the province of Huelva in 2015 and 2016.
For these assays, four plots of different varieties of citrus trees with surface areas comprised between 2 and 10 hectares were initially taken.
An artificial semiochemical matrix 1 was generated therein by arranging 500 diffusers/ha, with a substantially constant initial emission flow-1 of 300 μg/diffuser/day (optimal flow according to the state of the art) of (3S,6RS)-3-methyl-6-isopropenyl-9-decen-1-yl acetate.
In the interior of these artificial semiochemical matrices, two blocks of seven diffusers with different emission flows were installed in each assay. These blocks were separated by a distance of more than 80 meters therebetween and the diffusers were separated 25 meters intra-block. Each block included: • (a) a glued trap, without any kind of semiochemical emission; • (b) a glued trap, with a diffuser with a substantially constant emission flow of 25 μg/day of (3S,6RS)-3-methyl-6-isopropenyl-9-decen-1-yl acetate. • (c) a glued trap, with a diffuser with a substantially constant emission flow of 50 μg/day of (3S,6RS)-3-methyl-6-isopropenyl-9-decen-1-yl acetate. • (d) a glued trap, with a diffuser with a substantially constant emission flow of 100 μg/day of (3S,6RS)-3-methyl-6-isopropenyl-9-decen-1-yl acetate. • (e) a glued trap with a diffuser with a substantially constant emission flow of 200 μg/day of (3S,6RS)-3-methyl-6-isopropenyl-9-decen-1-yl acetate. • (f) a glued trap with a diffuser with a substantially constant emission flow of 300 μg/day of (3S,6RS)-3-methyl-6-isopropenyl-9-decen-1-yl acetate (initial flow-1). • (g) a glued trap with a diffuser with a substantially constant emission flow of 400 μg/day of (3S,6RS)-3-methyl-6-isopropenyl-9-decen-1-yl acetate.
All the traps were placed in the trees at a height of 1.5 m. The traps used were of the 9.5×15 cm white sticky sheet type. Diffusers with a substantially constant emission flow were fixed to the center of the sticky sheet. Replacement of the sheets, intra-block rotation of the traps and reading of the male captures was performed on a weekly basis. Upon completing the first rotation of the traps, it was observed that those whose emission corresponded to the flow of […] had the highest number of captured males and not the traps with an initial flow-1 of 300 μg/diffuser/day (FIG. 1).
Subsequently, a new iteration for obtaining the effective flow-2 within the new interlinked matrix was initiated, to which end the previous diffusers were withdrawn and a new artificial semiochemical matrix-2 was generated through the installation of 500 diffusers/ha, with a substantially constant initial emission flow-2 equal to 25 μg/day (effective flow-1) of (3S,6RS)-3-methyl-6-isopropenyl-9-decen-1-yl acetate.
Two blocks of seven diffusers were installed in the interior of this new interlinked semiochemical matrix in each assay. These blocks were separated by a distance of more than 80 meters therebetween and the diffusers were separated 25 meters intra-block. […]

Aonidiella aurantii [4] = test: Field control of A. aurantii in citrus crops, percentage of damaged fruit; type: in vivo; settings: 15.00 μg/diffuser/day
Description: With the final effective flow value (15 μg/diffuser/day), the assays for ascertaining the effective flow rate resulting from the combinations of the final effective flow of 15 μg/diffuser/day with an effective number of devices of 500 diffusers/ha, 380 diffusers/ha, 250 diffusers/ha, 100 diffusers/ha and 50 diffusers/ha continued in 2017, in addition to the result of chemical controls carried out using the products currently authorized to combat this pest. The effectiveness of the treatments was evaluated in accordance with the percentage of damaged fruit by means of sampling prior to picking the fruit. In order to determine said percentage, the number of shields of A. aurantii females per fruit was counted using the following protocol: 20 trees were selected per hectare and 10 fruits were taken from each tree: 8 from the exterior (from all the orientations and randomly) and 2 from the interior (randomly). A fruit with more than 10 shields was considered damaged. In the case of the treatment based on chemical control, a surface area equivalent to the other treatments was evaluated.

Planococcus ficus = test: Field control of P. ficus in table grape crops, percentage of bunches with presence of pest, molasses or fumigines; type: in vivo; settings: table grapes
Description: With the final definitive effective flow value (5-10 μg/diffuser/day), the assays for ascertaining the effective flow rate resulting from the combinations of the final effective flow with an effective number of devices of 1,000 diffusers/ha, 500 diffusers/ha, 250 diffusers/ha and 100 diffusers/ha continued in 2016 and 2017. Since the plots where the assays were carried out were used for organic or environmentally friendly farming, it was not possible to establish a chemical control for comparing the results of the effective control of Planococcus ficus. The effectiveness of the treatments was assessed in accordance with the percentage of bunches with presence of Planococcus ficus, molasses or fumigines by sampling prior to picking the grapes. In order to determine said percentage, 20 vines per hectare were taken randomly and 20 bunches were inspected in each, of which the 10 bunches closest to the center of the vine and the 10 bunches farthest from the vine were chosen, covering the entire vine. Both bunches in contact with primary branches were taken and isolated without touching any other branch. A total of […].

Planococcus ficus males = test: Field trap test: effective flow attracting P. ficus males within the interlinked semiochemical matrix; type: in vivo; settings: for EFFECTIVE FLOW: table grapes
Description: The response of the males of the species P. ficus, at different emission flows of senecioate S-lavandulyl, was evaluated in various field tests carried out on table grape crops located in the Municipal District of […] de Murcia and Totana, both municipalities in the Region of Murcia in 2015, 2016 and 2017. For these assays, four plots of different varieties of table grapes with surface areas comprised between 1 and 4 hectares were initially taken. An artificial semiochemical matrix-1 was generated therein through the installation of 1,000 diffusers/ha, with a substantially constant emission flow of 300 μg/day of S-lavandulyl senecioate (initial flow-1). The choice of this initial emission flow is based on the average emission of commercial diffusers for controlling this pest. In the interior of these artificial semiochemical matrices, two blocks of six diffusers with different emission flows were installed in each assay. These blocks were separated by a distance of more than 80 meters therebetween and the diffusers were separated 25 meters intra-block. Each block included: • (a) a glued trap, without any kind of semiochemical emission. • (b) a glued trap, with a substantially constant emission flow of 10 μg/day of S-lavandulyl senecioate. • (c) a glued trap, with a diffuser with a substantially constant emission flow of 50 μg/day of S-lavandulyl senecioate. • (d) a glued trap, with a diffuser with a substantially constant emission flow of 100 μg/day of S-lavandulyl senecioate. • (e) a glued trap with a diffuser with a substantially constant emission flow of 200 μg/day of S-lavandulyl senecioate. • (f) a glued trap with a diffuser with a substantially constant emission flow of 300 μg/day of S-lavandulyl senecioate (initial flow-1). All the traps were placed in the trees at a height of 2 m. The traps used were of the 9.5×15 cm white sticky sheet type. Diffusers with a substantially constant emission flow were fixed to the center of the sticky sheet. Replacement of the sheets, intra-block rotation of the traps and reading of the male captures was performed on a weekly basis. Upon completing the first rotation of the traps it was observed that those whose emission corresponded to the emission flow of […] (effective flow-1) achieved the highest number of captures within the interlinked semiochemical matrix (FIG. 4). Next, a new iteration for obtaining the effective flow-2 within the new interlinked matrix was initiated, to which end the previous diffusers were withdrawn and a new artificial semiochemical matrix-2 was generated through the installation of 1,000 diffusers/ha, with a substantially constant emission flow of 10 μg/day (effective flow-1) of S-lavandulyl senecioate. Two blocks of six diffusers were installed in the interior of this new interlinked semiochemical matrix in each assay. These blocks were separated by a distance of more than 80 meters therebetween and the diffusers were separated 25 meters intra-block. Each block included: • (a) a glued trap, without any kind of semiochemical emission; • (b) a glued trap, with a diffuser with a substantially constant emission flow of 0.1 μg/day of S-lavandulyl senecioate. • (c) a glued trap, with a diffuser with a substantially constant emission flow of 5 μg/day of S-lavandulyl senecioate. • (d) a glued trap, with a diffuser with a substantially constant emission flow of 10 μg/day of S-lavandulyl senecioate. • (e) a glued trap with a diffuser with a substantially constant emission flow of 15 μg/day of S-lavandulyl senecioate. • (f) a glued trap with a diffuser with a substantially constant emission flow of 25 μg/day of S-lavandulyl senecioate. • (g) a glued trap with a diffuser with a substantially constant emission flow of 50 μg/day of S-lavandulyl senecioate. All the traps were placed in the trees at a height of 2 m. The traps used were of the 9.5×15 cm white sticky sheet type. The diffusers with a substantially constant emission flow were fixed to the center of the sticky sheet. […]

With `C=CCCC(CC[C@H](C)CCOC(C)=O)C(=C)C` (mixture of isomers) [(3S,6RS)-3-methyl-6-isopropenyl-9-decen-1-yl acetate] the “effective flow rate value determined within the interlinked semiochemical matrix after successive iterations” value (Aonidiella aurantii [1]; 5 μg/day at 500 emission points per hectare) was 2.5 mg per hectare and day, the “EFFECTIVE CONTROL [% DAMAGE]” value (Aonidiella aurantii [1]; 15.00 μg/diffuser/day, 380 diff/Ha, 5.70 mg/Ha/day, 2016 El Campillo-Huelva) was 1.70% and 0.70% and 0.60% and the “flow rate corresponding to the optimal flow according to the state of the art” value (Aonidiella aurantii [1]; 300 μg/day at 500 emission points per hectare) was 150 mg per hectare and day. For the same compound, the “EFFECTIVE CONTROL [% DAMAGE]” value (Aonidiella aurantii [1]; matrix 25.00 μg/diffuser/day, 500 diff/Ha, 12.50 mg/Ha/day, 2016 Nerva Huelva) was 7.30% and 7.50% and 8.00%, the “optimal flow according to the state of the art” value [2] was 300 μg/diffuser/day and the “EFFECTIVE FLOW” value ([3]; 1st iteration, artificial semiochemical matrix 300.00 μg/diffuser/day, 500 diff/Ha, 2015 Rio Tinto-Huelva) was 25.00 μg/diffuser/day. For the same compound, the “EFFECTIVE FLOW” value ([3]; 2nd iteration, artificial semiochemical matrix 25.00 μg/diffuser/day, 500 diff/Ha, 2016 Nerva Huelva) was 15.00 μg/diffuser/day, the “EFFECTIVE FLOW” value ([3]; 3rd iteration, artificial semiochemical matrix 15.00 μg/diffuser/day, 380 diff/Ha, 2016 El Campillo-Huelva) was 15.00 μg/diffuser/day and the emission flow with the highest number of captured males (effective flow-1) ([3]; first rotation, matrix-1 of 500 diffusers/ha at 300 μg/diffuser/day, FIG. 1) was 25 µg/diffuser/day. The emission flow with higher number of captures (effective flow-2) ([3]; matrix-2 of 500 diffusers/ha at 25 μg/day, FIG. 2) was 15 µg/day, the final effective flow ([3]; third iteration, matrix of 500 diffusers/ha at 15 μg/day, FIG. 3) was 15 μg/diffuser/day and the “EFFECTIVE CONTROL [% DAMAGE]” value (Aonidiella aurantii [4]; 50 diff/Ha, 0.75 mg/Ha/day, 2017 Serra-Valencia, orange) was 3.30% and 4.00%. For the same compound, the “EFFECTIVE CONTROL [% DAMAGE]” value (Aonidiella aurantii [4]; 100 diff/Ha, 1.50 mg/Ha/day, 2017 Serra-Valencia, orange) was 5.10% and 3.80%, the “EFFECTIVE CONTROL [% DAMAGE]” value (Aonidiella aurantii [4]; 250 diff/Ha, 3.75 mg/Ha/day, 2017 Monserrat-Valencia, mandarine) was 4.20% and the “EFFECTIVE CONTROL [% DAMAGE]” value (Aonidiella aurantii [4]; 250 diff/Ha, 3.75 mg/Ha/day, 2017 Monserrat-Valencia, orange) was 3.00%. The “EFFECTIVE CONTROL [% DAMAGE]” value (Aonidiella aurantii [4]; 250 diff/Ha, 3.75 mg/Ha/day, 2017 Picasent-Valencia, mandarine) was 1.90%.
In the case of `C=C(C)[C@H](CC=C(C)C)COC(=O)C=C(C)C` [S-lavandulyl senecioate], the “EFFECTIVE CONTROL [% DAMAGE]” value (Planococcus ficus; 5 μg/diffuser/day, 100 diff/Ha, 0.50 mg/Ha/day, 2017 Totana-Murcia) is reported as 4.50%, the “EFFECTIVE CONTROL [% DAMAGE]” value (Planococcus ficus; 5 μg/diffuser/day, 250 diff/Ha, 1.25 mg/Ha/day, 2017 Totana-Murcia) is reported as 1.80% and the “EFFECTIVE CONTROL [% DAMAGE]” value (Planococcus ficus; 5.00 μg/diffuser/day, 500 diff/Ha, 2.50 mg/Ha/day, 2017 Alhama de Murcia) is reported as 0.80% and 1.40%. The “EFFECTIVE CONTROL [% DAMAGE]” value (Planococcus ficus; 5.00 μg/diffuser/day, 1,000 diff/Ha, 5.00 mg/Ha/day, 2017 Alhama de Murcia) was 2.30% and 0.00%, the “EFFECTIVE CONTROL [% DAMAGE]” value (Planococcus ficus; 10 μg/diffuser/day, 100 diff/Ha, 1.00 mg/Ha/day, 2017 Totana-Murcia) was 3.00% and the “EFFECTIVE CONTROL [% DAMAGE]” value (Planococcus ficus; 10 μg/diffuser/day, 250 diff/Ha, 2.50 mg/Ha/day, 2017 Totana-Murcia) was 2.90%. The “EFFECTIVE CONTROL [% DAMAGE]” value (Planococcus ficus; 10.00 μg/diffuser/day, 500 diff/Ha, 5.00 mg/Ha/day, 2016 Alhama de Murcia) was 0%, the “EFFECTIVE CONTROL [% DAMAGE]” value (Planococcus ficus; 10.00 μg/diffuser/day, 1,000 diff/Ha, 10.00 mg/Ha/day, 2016 Alhama de Murcia) was 1.20% and 0.90% and 3.70% and the “EFFECTIVE FLOW” value (Planococcus ficus males; 1st iteration, artificial semiochemical matrix 300.00 μg/diffuser/day, 1,000 diff/Ha, 2015 Alhama de Murcia) was 10.00 μg/diffuser/day. The “EFFECTIVE FLOW” value (Planococcus ficus males; 2nd iteration, artificial semiochemical matrix 10.00 μg/diffuser/day, 1,000 diff/Ha, 2016 Alhama de Murcia) was 10.00 μg/diffuser/day, the “EFFECTIVE FLOW” value (Planococcus ficus males; 3rd iteration, artificial semiochemical matrix 5.00 μg/diffuser/day, 1,000 diff/Ha, 2017 Alhama de Murcia) was 5.00 μg/diffuser/day and the “EFFECTIVE FLOW” value (Planococcus ficus males; 3rd iteration, artificial semiochemical matrix 10.00 μg/diffuser/day, 500 diff/Ha, 2016 Alhama de Murcia) was 10.00 μg/diffuser/day. The “final definitive effective flow value” (Planococcus ficus males; after second iteration) was 5-10 μg/diffuser/day, the emission flow with the highest number of captures (effective flow-1) (Planococcus ficus males; matrix-1 of 1,000 diffusers/ha at 300 μg/day, FIG. 4) was 10 µg/day and the “flows with the highest number of male captures” value (Planococcus ficus males; matrix-2 of 1,000 diffusers/ha at 10 μg/day, FIG. 5) was 5 µg/day and 10 µg/day.
